Source: paper PMC4874602 (ACS Infectious Diseases, 2016)
Read-outs that look alike come from different tables or passages of the source.

Legend:
[1] = tested on: Mycobacterium tuberculosis; conditions: cited from earlier work
[2] = C3HeB/FeJ; for AUC8h: single 150 mg/kg oral dose of PZA
[3] = BALB/c; for Cmax / AUC168h / Tmax / t1/2: single 25 mg/kg oral dose of BDQ; for AUC8h: single 150 mg/kg oral dose of PZA
[4] = cited from earlier work
[5] = lung; single dose of 25 mg/kg BDQ; BALB/c and C3HeB/FeJ
M. tuberculosis Erdman [6] = format: in vivo, Mycobacterium tuberculosis; conditions: BALB/c, P < 0.01
THP-1 cells = conditions: 30 min exposure, 1 mM PZA, 0.4 mM POA
in vivo [7] = conditions: BALB/c, mouse, po, 150 mg/kg; for Cmax / half-life / Tmax: single 150 mg/kg oral dose of PZA; for half-life: t1/2, BALB/c
in vivo [8] = conditions: C3HeB/FeJ, mouse, po, 150 mg/kg; for Cmax / half-life / Tmax: single 150 mg/kg oral dose of PZA; for half-life: t1/2, C3HeB/FeJ
M. tuberculosis Erdman [9] = format: in vivo, Mycobacterium tuberculosis; conditions: C3HeB/FeJ, P < 0.01
in vivo [10] = conditions: BALB/c and C3HeB/FeJ, mouse, 150 mg/kg
[11] = lesion (type I), single 25 mg/kg oral dose of BDQ
[12] = plasma, single 25 mg/kg oral dose of BDQ
[13] = uninvolved lung, single 25 mg/kg oral dose of BDQ
[14] = whole lung, single 25 mg/kg oral dose of BDQ
[15] = lesion (cellular non-necrotizing, type III)
[16] = PZA 150 mg/kg, first 3 weeks of treatment
[17] = PZA 300 mg/kg vs 150 mg/kg, first 3 weeks

CNCCC(O)(c1cccc2ccccc12)C(c1ccccc1)c1cc2cc(Br)ccc2nc1OC (stereo not shown) [M2, N-desmethyl-BDQ]
MIC relative to BDQ [1]: approximately five times higher than that of BDQ | concentration in dissected caseum of type I granulomas (LC/MS/MS) ([2]; 8 h following a single 25 mg/kg dose of BDQ, preliminary): 587.5 ng/g | Cmax ([2]; lesion (caseous necrotic granuloma, type I), single 25 mg/kg oral dose of BDQ): 26.8 µg/g | AUC168h [2, 11]: 2848 µg·h/g | Tmax [2, 11]: 24 h | t1/2 [2, 11]: 98.6 h | AUC168h [2, 12]: 69.3 µg·h/mL | Cmax [2, 12]: 0.70 µg/mL | Tmax [2, 12]: 24 h | plasma exposure (AUC168h) as printed in the discussion [2, 12]: 69.3 µg·h/g | t1/2 ([2]; plasma, single 25 mg/kg oral dose of BDQ, 72–168 h terminal): 55.9 h | AUC168h [2, 13]: 4895 µg·h/g | Cmax [2, 13]: 46.9 µg/g | Tmax [2, 13]: 24 h | t1/2 [2, 13]: 89.4 h | AUC168h [2, 14]: 5254 µg·h/g | Cmax [2, 14]: 45.4 µg/g | Tmax [2, 14]: 24 h | t1/2 [2, 14]: 134.7 h | Cmax [3, 15]: 82.7 µg/g | AUC168h ([3]; lesion (type III)): 7619 µg·h/g | Tmax ([3]; lesion (type III)): 24 h | t1/2 ([3]; lesion (type III)): 90.7 h | AUC168h ([3]; plasma): 57.3 µg·h/mL | Cmax ([3]; plasma): 0.76 µg/mL | Tmax ([3]; plasma): 8 h | t1/2 ([3]; plasma, 72–168 h terminal): 59.8 h | AUC168h ([3]; uninvolved lung): 8825 µg·h/g | Cmax ([3]; uninvolved lung): 111.8 µg/g | Tmax ([3]; uninvolved lung): 24 h | t1/2 ([3]; uninvolved lung): 69.7 h | AUC168h ([3]; whole lung): 7207 µg·h/g | Cmax ([3]; whole lung): 69.5 µg/g | Tmax ([3]; whole lung): 24 h | t1/2 ([3]; whole lung): 90.6 h | protein bound [4]: more than 99% | tmax by MALDI-MSI [5]: 24 h

NC(=O)c1cnccn1 [PZA, pyrazinamide]
MIC ([1]; pH 7.0, standard laboratory culture conditions): > 1000 mg/mL | change in pulmonary CFU (M. tuberculosis Erdman [6]; [16]): significant decrease in pulmonary CFU | change in pulmonary CFU (M. tuberculosis Erdman [6]; [17]): larger decrease in CFU | accumulation within THP-1 cells (THP-1 cells): accumulated to a very low degree | AUC8h ([2]; lesion (type I)): 351.8 µg·h/g | AUC8h ([2]; uninvolved lung): 237.9 µg·h/g | AUC8h ([2]; whole lung): 306.3 µg·h/g | AUC(0-t) (in vivo [7]): 346 µg·h/mL | Kp (in vivo [7]; AUCLes/AUCplasma): 1.33 | Kp (in vivo [7]; AUCUL/AUCplasma): 0.76 | Kp (in vivo [7]; AUCWL/AUCplasma): 0.86 | Cmax (in vivo [7]; [15]): 146000 ng/g | Cmax (in vivo [7]; plasma): 161 µg/mL | Cmax (in vivo [7]; uninvolved lung): 93600 ng/g | Cmax (in vivo [7]; whole lung): 123000 ng/g | half-life (in vivo [7]; lesion (type III)): 0.96 h | half-life (in vivo [7]; plasma, 2.5–8 h terminal): 1.05 h | half-life (in vivo [7]; uninvolved lung): 0.75 h | half-life (in vivo [7]; whole lung): 1.02 h | Tmax (in vivo [7]; lesion (type III)): 0.5 h | Tmax (in vivo [7]; plasma): 0.5 h | Tmax (in vivo [7]; uninvolved lung): 0.5 h | Tmax (in vivo [7]; whole lung): 0.5 h | AUC(0-t) (in vivo [8]): 329 µg·h/mL | Kp (in vivo [8]; AUCLes/AUCplasma): 1.07 | Kp (in vivo [8]; AUCUL/AUCplasma): 0.72 | Kp (in vivo [8]; AUCWL/AUCplasma): 0.93 | Cmax (in vivo [8]; lesion (caseous necrotic granuloma, type I)): 94700 ng/g | Cmax (in vivo [8]; plasma): 87.4 µg/mL | Cmax (in vivo [8]; uninvolved lung): 66200 ng/g | Cmax (in vivo [8]; whole lung): 76500 ng/g | half-life (in vivo [8]; lesion (type I)): 2.88 h | half-life (in vivo [8]; plasma, 2.5–8 h terminal): 2.6 h | half-life (in vivo [8]; uninvolved lung): 3.01 h | half-life (in vivo [8]; whole lung): 2.82 h | Tmax (in vivo [8]; lesion (type I)): 1 h | Tmax (in vivo [8]; plasma): 0.75 h | Tmax (in vivo [8]; uninvolved lung): 1 h | Tmax (in vivo [8]; whole lung): 1 h | AUC8h ([3]; lesion (type III)): 459.4 µg·h/g | AUC8h ([3]; uninvolved lung): 262.8 µg·h/g | AUC8h ([3]; whole lung): 298.6 µg·h/g | change in pulmonary CFU (M. tuberculosis Erdman [9]; [16]): significant decrease in pulmonary CFU | change in pulmonary CFU (M. tuberculosis Erdman [9]; [17]): larger decrease in CFU | Tmax (in vivo [10]): 0.5 to 1 h
